Measured values as given in doi:10.1101/2025.05.17.654689v2 (biorxiv, 2025).

System: QgIspS1-like (ΔTP-QgIspS1-like-6×His)
Test: GC-MS
Format: biochemical, Quercus glauca
Details: 20 mM MgCl2, 37 °C, 30 min; from formation of the main product trans-β-ocimene

Km: 180 ± 40 µM
Structure (SMILES): CC(C)=CCC/C(C)=C/COP(=O)(O)OP(=O)(O)O [GPP]
